Experimental findings from paper PMC7449411, “In silico discovery and biological validation of ligands of FAD synthase, a promising new antimicrobial target” (PLoS Computational Biology, 2020) are described below.

The MIC is the lowest concentration found to suppress growth. Read a high MIC as a less susceptible organism.

For assay [1], the system named is E. coli. The experiment in a line: MIC, resazurin broth microdilution. The format is cell-based, Escherichia coli. Particulars: media LB.
The subject of assay [2] is S. pneumoniae. The experiment in a line: MIC, resazurin broth microdilution. The format is cell-based, Streptococcus pneumoniae. Background: The colour change of resazurin is a common sign of viable cells or microbes.
Assay [3] has as its system C. glutamicum. The experiment in a line: MIC, resazurin broth microdilution. It counts as cell-based, Corynebacterium glutamicum. Particulars: media BHI.
Assay [4] concerns L. monocytogenes. The experiment in a line: MIC, resazurin broth microdilution. It counts as cell-based, Listeria monocytogenes. Particulars: media BHI.
Assay [5] has as its system P. aeruginosa. The experiment in a line: MIC, resazurin broth microdilution. The format is cell-based, Pseudomonas aeruginosa. Particulars: media MH.
Assay [6] deals with C. ammoniagenes. The experiment in a line: MIC, resazurin broth microdilution. The format is cell-based, Corynebacterium ammoniagenes. The note with it: C. ammoniagenes.
Assay [7] has as its system M. tuberculosis. The experiment in a line: MIC, resazurin broth microdilution. The format is cell-based, Mycobacterium tuberculosis. The note with it: M. tuberculosis, media 7H9G-ADC.
Assay [8] concerns M. smegmatis. The experiment in a line: MIC, resazurin broth microdilution. The format is cell-based, Mycobacterium smegmatis. The note with it: media 7H9G-ADC.
Assay [9] relates to C. diphteriae. Put plainly: MIC, resazurin broth microdilution. It counts as cell-based, Corynebacterium diphteriae.
For assay [10], the system named is S. aureus. The experiment in a line: MIC, resazurin broth microdilution. The format is cell-based, Staphylococcus aureus. Particulars: media MH.
Assay [11] has as its system S. thyphimurium. The experiment in a line: MIC, resazurin broth microdilution. It counts as cell-based, Salmonella thyphimurium. The note with it: media MH.
The target in assay [12] is T1, CaFADS (Corynebacterium ammoniagenes, UniProt Q59263).
T1 construct: made in house; host or cells: Escherichia coli BL21(DE3)
T1 sequence (Q59263 whole entry): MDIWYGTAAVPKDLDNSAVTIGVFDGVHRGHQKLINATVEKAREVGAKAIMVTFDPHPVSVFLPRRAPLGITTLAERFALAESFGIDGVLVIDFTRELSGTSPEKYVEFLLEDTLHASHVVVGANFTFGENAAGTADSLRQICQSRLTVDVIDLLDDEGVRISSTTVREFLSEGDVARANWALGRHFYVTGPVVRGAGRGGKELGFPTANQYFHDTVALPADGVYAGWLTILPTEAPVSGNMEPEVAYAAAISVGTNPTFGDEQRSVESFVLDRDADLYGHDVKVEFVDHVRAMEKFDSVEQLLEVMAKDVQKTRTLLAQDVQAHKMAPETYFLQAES
Put plainly: Differential scanning fluorescence (thermal denaturation) binding to CaFADS. The note with it: 2 μM CaFADS, compound up to 250 μM. The procedure: Interaction of compounds with CaFADS was evaluated using fluorescence thermal denaturation, on the bases of the shifts in denaturation midpoints of thermal curves of the protein [65]. Denaturations were performed in a Stratagene Agilent Mx3005p qPCR instrument (Santa Clara, US) following SYPR Orange (ThermoFisher Scientific) emission fluorescence (excitation at 492 nm and emission at 610 nm), which greatly increases when this probe binds to protein hydrophobic regions becoming solvent exposed upon thermal unfolding. Solutions containing 2 μM CaFADS with the studied compound in an increasing 5-250 μM concentration range (2% residual final concentration of DMSO) and 5xSYPR Orange in 20 mM PIPES pH 7.0, 10 mM MgCl2, with a 100 μL total volume were dispensed into 96-well microplates (BRAND 96-well plates pure grade™). After an initial 1 min incubation at 25 °C within the equipment, unfolding curves were registered from 25 to 100 °C at 1 °C·min^−1. Control experiments with CaFADS samples with/without DMSO were routinely performed in each microplate. For those compounds shifting midpoint denaturation temperature, Tm, the dissociation constant, Kd, was predicted by fitting the data to the equation [66] ΔTm/Tm=NRTm0/ΔH0ln(1+[L]/Kd), (2) which estimates the extent of the ligand-induced protein stabilization/destabilization. ΔTm=|Tm-Tm0| with Tm0 and Tm being the midpoint denaturation temperatures in the absence and the presence of ligand, respectively, and ΔH0 the unfolding enthalpy of the protein in the absence of ligand.

Turning to `COc1ccc(NC(=O)CC(CC(=O)O)c2cc(OC)c(OC)c(OC)c2)cc1` (centres unmarked) [Compound C11, 5-(4-methoxyanilino)-5-oxo-3-(3,4,5-trimethoxyphenyl)pentanoic acid], the minimal inhibitory concentration (MIC) in [1] was greater than 64 µM; in assay [2] (media BHI) it was greater than 256 µM; in assay [2] (media MH), greater than 256 µM; in assay [3] it was greater than 64 µM; in assay [4], greater than 64 µM; in [5] it was greater than 256 µM. Further, the MIC in assay [6] (media BHI) is given as greater than 64 µM; in [6] (media MH), greater than 256 µM; in assay [6] (media MH+DFO) it was greater than 256 µM; in assay [6] (media MH+DIP), greater than 256 µM; in assay [6] (media MH+DIP+DFO) it was greater than 256 µM; in assay [7], greater than 256 µM. Further, the MIC in assay [8] was greater than 256 µM; in [9] (media BHI), greater than 64 µM; in assay [9] (media MH), greater than 256 µM; in [10], greater than 256 µM; in assay [11], greater than 256 µM.

For the compound `O=C(O)CC(CC(=O)Nc1ccc2ccccc2n1)c1ccccc1` (centres unmarked) [Compound C4, 5-oxo-3-phenyl-5-(2-quinolinylamino)pentanoic acid], the MIC was greater than 64 µM in [1]; greater than 256 µM in assay [2] (media BHI); greater than 256 µM in assay [2] (media MH); greater than 64 µM in assay [3]; greater than 64 µM in assay [4]; greater than 256 µM in [5]. Also, the MIC in [6] (media BHI) was greater than 64 µM; in assay [6] (media MH) it was greater than 256 µM; in [6] (media MH+DFO) it was greater than 256 µM; in assay [6] (media MH+DIP) it was greater than 256 µM; in assay [6] (media MH+DIP+DFO) it was greater than 256 µM; in [7], greater than 256 µM. Moreover, the minimum inhibitory concentration (MIC) in assay [8] is on record as greater than 256 µM; in assay [9] (media BHI), greater than 64 µM; in assay [9] (media MH), greater than 256 µM; in assay [10] it was greater than 256 µM; in [11] it was greater than 256 µM.

For `NS(=O)(=O)c1ccc(NC(=O)CC(CC(=O)O)c2ccccc2)cc1` (centres unmarked) [Compound C17, 5-[4-(aminosulfonyl)anilino]-5-oxo-3-phenylpentanoic acid], the minimum inhibitory concentration (MIC) in assay [1], in [3], in assay [4], in [5], in assay [6] (media MH) and in [6] (media MH+DFO) was greater than 256 µM throughout. Also, the minimum inhibitory concentration (MIC) in assay [6] (media MH+DIP), in assay [6] (media MH+DIP+DFO), in assay [7], in assay [9] (media MH), in assay [10] and in [11] was greater than 256 µM throughout.

Regarding `CC1=C(C)CC(C(=O)Nc2ccc(Oc3ccc(Cl)cc3)cc2)C(C(=O)O)C1` (centres unmarked) [Compound C12, 6-{[4-(4-chlorophenoxy)anilino]carbonyl}-3,4-dimethylcyclohex-3-ene-1-carboxylic acid], the MIC in [1], in assay [3], in assay [4], in [5], in assay [6] (media MH) and in assay [6] (media MH+DFO) was greater than 256 µM in each case. Moreover, the minimum inhibitory concentration (MIC) in [6] (media MH+DIP), in assay [6] (media MH+DIP+DFO), in assay [7], in assay [9] (media MH), in assay [10] and in assay [11] was greater than 256 µM throughout. In [12], the “Tm shift of CaFADS thermal denaturation” value is recorded as “neither binder nor inhibitor”.

For `Cc1ccc(OCC2SCCN2C(=O)c2c(-c3c(Cl)cccc3Cl)noc2C)c([N+](=O)[O-])c1` (centres unmarked) [Compound C25, [3-(2,6-dichlorophenyl)-5-methylisoxazol-4-yl]{2-[(4-methyl-2-nitrophenoxy)methyl]-1,3-thiazolan-3-yl}methanone], the minimum inhibitory concentration (MIC) in assay [1], in [3], in [4], in assay [5], in [6] (media MH) and in [6] (media MH+DFO) was greater than 256 µM in each case. Also, the MIC in [6] (media MH+DIP), in assay [6] (media MH+DIP+DFO), in assay [7], in [9] (media MH), in assay [10] and in [11] was greater than 256 µM in each case.

Consider `O=C(O)C(=Cc1ccc2c(c1)OCO2)NC(=O)c1ccccc1` [Compound C14, 3-(1,3-benzodioxol-5-yl)-2-(benzoylamino)acrylic acid], for which the MIC in [1] is greater than 64 µM; in assay [2] (media BHI), greater than 256 µM; in assay [2] (media MH) it was greater than 256 µM; in assay [3], greater than 64 µM; in assay [4] it was greater than 64 µM; in assay [5], greater than 256 µM. In addition, the minimal inhibitory concentration (MIC) was greater than 64 µM in assay [6] (media BHI); greater than 256 µM in assay [6] (media MH); greater than 256 µM in assay [6] (media MH+DFO); greater than 256 µM in assay [6] (media MH+DIP); greater than 256 µM in [6] (media MH+DIP+DFO); greater than 256 µM in assay [7]. Besides, the MIC is greater than 256 µM in [8]; greater than 64 µM in assay [9] (media BHI); greater than 256 µM in [9] (media MH); greater than 256 µM in assay [10]; greater than 256 µM in assay [11].

Take `N#CC(=Cc1cccc([N+](=O)[O-])c1)c1nn(-c2ccccc2)c(-n2cccc2)c1C#N` [Compound C8, 3-[1-cyano-2-(3-nitrophenyl)vinyl]-1-phenyl-5-(1H-pyrrol-1-yl)-1H-pyrazole-4-carbonitrile]: the minimal inhibitory concentration (MIC) in assay [1] is given as greater than 64 µM; in [2] (media BHI), greater than 256 µM; in [2] (media MH), greater than 256 µM; in [3], greater than 64 µM; in assay [4], greater than 64 µM; in [5], greater than 256 µM. The minimal inhibitory concentration (MIC) in assay [6] (media BHI) is given as greater than 64 µM; in assay [6] (media MH), greater than 256 µM; in [6] (media MH+DFO) it was greater than 256 µM; in assay [6] (media MH+DIP) it was greater than 256 µM; in assay [6] (media MH+DIP+DFO), greater than 256 µM; in assay [7], greater than 256 µM. The MIC is greater than 256 µM in assay [8]; greater than 64 µM in assay [9] (media BHI); greater than 256 µM in assay [9] (media MH); greater than 256 µM in assay [10]; greater than 256 µM in assay [11].

Turning to `N#Cc1ccc(C=NNC(=O)c2cnn(-c3ccc([N+](=O)[O-])cc3)c2C(F)(F)F)cc1` [Compound C10, N'-[(4-cyanophenyl)methylene]-1-(4-nitrophenyl)-5-(trifluoromethyl)-1H-pyrazole-4-carbohydrazide], the MIC in assay [1] is given as greater than 64 µM; in assay [2] (media BHI), greater than 256 µM; in assay [2] (media MH) it was greater than 256 µM; in assay [3], greater than 64 µM; in assay [4], greater than 64 µM; in assay [5], greater than 256 µM. Also, the MIC in [6] (media BHI) was greater than 64 µM; in assay [6] (media MH) it was greater than 256 µM; in assay [6] (media MH+DFO), greater than 256 µM; in [6] (media MH+DIP) it was greater than 256 µM; in assay [6] (media MH+DIP+DFO) it was greater than 256 µM; in assay [7], greater than 256 µM. The minimal inhibitory concentration (MIC) in assay [8] is recorded as greater than 256 µM; in [9] (media BHI) it was greater than 64 µM; in assay [9] (media MH) it was greater than 256 µM; in [10] it was greater than 256 µM; in [11] it was greater than 256 µM.
